The source of these data is patent publication US9732075B2, “Benzimidazole-proline derivatives” (IDORSIA PHARMACEUTICALS LTD, priority 2012, dated 2017).

pIC50: −log10 of the molar value.

One experiment concerns the target human orexin-2 receptor (Homo sapiens (Human), UniProt O43614). As to the kind of experiment: In vitro assay: intracellular calcium measurements (FLIPR), antagonistic activity. The experiment is classed as cell-based. The following applies: CHO cells expressing human orexin-2 receptor, orexin-A agonist, geometric mean, read-out: IC50 Ox2. The essentials:
(§1)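 Read-out: FLIPR fluo-4 calcium peak height in CHO cells bearing human orexin-1 or orexin-2 receptor, relative to orexin-A (approx. EC70) with vehicle. Antagonist preincubation 120 min; agonist orexin-A at 3 nM final. IC50 possibly normalized to an on-plate reference compound.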
(Calcium assays in cells follow changes in intracellular calcium, usually with a dye or a luminescent sensor.)

In a further experiment the target is human orexin-1 receptor (Homo sapiens (Human), UniProt O43613). The experiment is described as above. The settings on record: CHO cells expressing human orexin-1 receptor, orexin-A agonist, geometric mean, read-out: IC50 Ox1. The class given is cell-based. The essentials: as §1
Chain of human orexin-1 receptor (O43613 whole entry): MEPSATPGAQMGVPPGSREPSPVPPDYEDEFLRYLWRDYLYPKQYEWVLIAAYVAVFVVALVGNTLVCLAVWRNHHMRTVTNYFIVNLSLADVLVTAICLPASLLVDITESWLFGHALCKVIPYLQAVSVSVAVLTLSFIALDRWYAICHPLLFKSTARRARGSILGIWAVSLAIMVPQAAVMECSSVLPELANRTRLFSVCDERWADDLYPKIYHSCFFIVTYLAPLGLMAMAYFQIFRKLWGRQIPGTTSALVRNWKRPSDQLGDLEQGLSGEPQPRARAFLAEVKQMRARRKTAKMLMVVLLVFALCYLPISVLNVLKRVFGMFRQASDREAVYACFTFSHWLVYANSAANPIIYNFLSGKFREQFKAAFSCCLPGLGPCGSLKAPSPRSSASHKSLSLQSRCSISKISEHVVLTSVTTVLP

Chain of human orexin-2 receptor (O43614 whole entry): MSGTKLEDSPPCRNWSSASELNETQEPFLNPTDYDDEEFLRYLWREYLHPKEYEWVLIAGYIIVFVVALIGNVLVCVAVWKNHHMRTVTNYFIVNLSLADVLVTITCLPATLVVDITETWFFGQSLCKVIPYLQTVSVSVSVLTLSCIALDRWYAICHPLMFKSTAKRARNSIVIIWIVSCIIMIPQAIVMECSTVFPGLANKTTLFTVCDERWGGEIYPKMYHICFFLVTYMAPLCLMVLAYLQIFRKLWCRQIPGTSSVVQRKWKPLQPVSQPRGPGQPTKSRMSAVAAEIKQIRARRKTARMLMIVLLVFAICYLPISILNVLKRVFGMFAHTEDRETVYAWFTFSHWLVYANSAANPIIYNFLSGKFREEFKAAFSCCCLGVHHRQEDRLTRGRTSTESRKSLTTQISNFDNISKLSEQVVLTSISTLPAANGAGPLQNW

By pIC50 is commonly meant the IC50 on a negative log10 scale, so that one unit is a factor of ten. As for `Cc1cc(C)c2nc([C@@H]3[C@@H](C)CCN3C(=O)c3nc(C)sc3-c3cccc(Cl)c3)[nH]c2c1` [Ex. 4.16], the pIC50 on human orexin-2 receptor was 6.60; at human orexin-1 receptor it was 9.00.
Taken in the same sequence, the figures for `Cc1nc(C(=O)N2CC[C@H](C)[C@H]2c2nc3c(CO)cccc3[nH]2)c(-c2cccc(Cl)c2)s1` [Ex. 4.17] were 5.78 and 7.85.
The matching figures for `Cc1nc(C(=O)N2CC[C@H](C)[C@H]2c2nc3c(F)cccc3[nH]2)c(-c2cccc(Cl)c2)s1` [Ex. 4.18]: 5.53 and 7.37.
The matching figures for `Cc1nc(C(=O)N2CC[C@H](C)[C@H]2c2nc3c(C(F)(F)F)cccc3[nH]2)c(-c2cccc(Cl)c2)s1` [Ex. 4.19]: 6.37 and 8.70.
On to `Cc1nc(C(=O)N2CC[C@H](C)[C@H]2c2nc3cc(F)ccc3[nH]2)c(-c2cccc(Cl)c2)s1` [Ex. 4.20], for which the pIC50 was 5.61 on human orexin-2 receptor and 7.55 at human orexin-1 receptor.
The matching figures for `Cc1nc(C(=O)N2CC[C@H](C)[C@H]2c2nc3c(C)c(Cl)ccc3[nH]2)c(-c2cccc(Cl)c2)s1` [Ex. 4.21]: 6.88 and 9.00.
The matching figures for `Cc1nc(C(=O)N2CC[C@H](C)[C@H]2c2nc3cccc(Cl)c3[nH]2)c(-c2cccc(Cl)c2)s1` [Ex. 4.22]: 5.97 and 8.22.
The matching figures for `Cc1nc(C(=O)N2CC[C@H](C)[C@H]2c2nc3c(F)c(F)ccc3[nH]2)c(-c2cccc(Cl)c2)s1` [Ex. 4.23]: 5.71 and 8.05.
Regarding `Cc1nc(C(=O)N2CC[C@H](C)[C@H]2c2nc3c(C)c(C)ccc3[nH]2)c(-c2cccc(Cl)c2)s1` [Ex. 4.24], the pIC50 at human orexin-2 receptor was 6.44; on human orexin-1 receptor it was 8.70.
The matching figures for `Cc1nc(C(=O)N2CC[C@H](C)[C@H]2c2nc3c(C(C)C)cccc3[nH]2)c(-c2cccc(Cl)c2)s1` [Ex. 4.25]: 6.36 and 8.40.
Taken in the same sequence, the figures for `COc1ccc2nc([C@@H]3[C@@H](C)CCN3C(=O)c3nc(C)sc3-c3cccc(Cl)c3)[nH]c2c1` [Ex. 4.26] were 5.64 and 7.77.
Taken in the same sequence, the figures for `Cc1nc(C(=O)N2CC[C@H](C)[C@H]2c2nc3cc(CO)ccc3[nH]2)c(-c2cccc(Cl)c2)s1` [Ex. 4.27] were 5.25 and 7.23.
On to `Cc1nc(C(=O)N2CC[C@H](C)[C@H]2c2nc3cc(Cl)cc(C)c3[nH]2)c(-c2cccc(Cl)c2)s1` [Ex. 4.28], for which the pIC50 was 6.31 at human orexin-2 receptor and 8.70 on human orexin-1 receptor.
Taken in the same sequence, the figures for `Cc1ccc(-n2nccn2)c(C(=O)N2CC[C@H](C)[C@H]2c2nc3cc(C(F)(F)F)ccc3[nH]2)c1` [Ex. 4.29] were 6.45 and 7.52.
Taken in the same sequence, the figures for `Cc1ccc(-n2nccn2)c(C(=O)N2CC[C@H](C)[C@H]2c2nc3cc(C)c(C)cc3[nH]2)c1` [Ex. 4.30] were 6.81 and 7.92.
Taken in the same sequence, the figures for `COc1cccc2[nH]c([C@@H]3[C@@H](C)CCN3C(=O)c3cc(C)ccc3-n3nccn3)nc12` [Ex. 4.31] were 6.11 and 7.11.
For the compound `Cc1ccc(-n2nccn2)c(C(=O)N2CC[C@H](C)[C@H]2c2nc3cc(Cl)c(C)cc3[nH]2)c1` [Ex. 4.32], the pIC50 on human orexin-2 receptor was 6.81; at human orexin-1 receptor, 8.15.
The matching figures for `Cc1ccc(-n2nccn2)c(C(=O)N2CC[C@H](C)[C@H]2c2nc3c(C)cc(C)cc3[nH]2)c1` [Ex. 4.33]: 6.53 and 8.05.
The matching figures for `Cc1ccc(-n2nccn2)c(C(=O)N2CC[C@H](C)[C@H]2c2nc3c(C(F)(F)F)cccc3[nH]2)c1` [Ex. 4.34]: 5.73 and 7.43.
For the compound `Cc1ccc(-n2nccn2)c(C(=O)N2CC[C@H](C)[C@H]2c2nc3c(C)c(Cl)ccc3[nH]2)c1` [Ex. 4.35], the pIC50 on human orexin-2 receptor is 6.71; at human orexin-1 receptor, 8.52.
Turning to `Cc1ccc(-n2nccn2)c(C(=O)N2CC[C@H](C)[C@H]2c2nc3c(Cl)cccc3[nH]2)c1` [Ex. 4.36], the pIC50 at human orexin-2 receptor was 5.56; on human orexin-1 receptor, 7.15.
With `Cc1ccc(-n2nccn2)c(C(=O)N2CC[C@H](C)[C@H]2c2nc3c(C)c(C)ccc3[nH]2)c1` [Ex. 4.37], the pIC50 was 6.01 on human orexin-2 receptor and 7.62 at human orexin-1 receptor.
Taken in the same sequence, the figures for `Cc1ccc(-n2nccn2)c(C(=O)N2CC[C@H](C)[C@H]2c2nc3c(C(C)C)cccc3[nH]2)c1` [Ex. 4.38] were 6.12 and 7.26.
The matching figures for `Cc1ccc(-n2nccn2)c(C(=O)N2CC[C@H](C)[C@H]2c2nc3cc(Cl)cc(C)c3[nH]2)c1` [Ex. 4.39]: 6.50 and 7.85.
For `COc1cc2nc([C@@H]3[C@@H](C)CCN3C(=O)c3cc(Cl)ccc3-n3nccn3)[nH]c2cc1OC` [Ex. 4.40], the pIC50 at human orexin-2 receptor is 7.55; on human orexin-1 receptor, 7.68.
For the compound `COc1cc2nc([C@@H]3[C@@H](C)CCN3C(=O)c3cc(F)ccc3-n3nccn3)[nH]c2cc1OC` [Ex. 4.41], the pIC50 was 6.61 on human orexin-2 receptor and 6.74 at human orexin-1 receptor.
Taken in the same sequence, the figures for `COc1cc2nc([C@@H]3[C@@H](C)CCN3C(=O)c3c(F)cccc3-n3nccn3)[nH]c2cc1OC` [Ex. 4.42] were 5.95 and 6.44.
`COc1ccc(-n2nccn2)c(C(=O)N2CC[C@H](C)[C@H]2c2nc3cc(OC)c(OC)cc3[nH]2)c1` [Ex. 4.43]: the pIC50 is 7.01 on human orexin-2 receptor and 7.41 at human orexin-1 receptor.
As to `COc1cc2nc([C@@H]3[C@@H](C)CCN3C(=O)c3c(-n4nccn4)ccc(C)c3F)[nH]c2cc1OC` [Ex. 4.44], the negative logarithm of the IC50 (pIC50) at human orexin-2 receptor was 6.61; at human orexin-1 receptor, 7.42.
The matching figures for `COc1cc2nc([C@@H]3[C@@H](C)CCN3C(=O)c3c(-n4nccn4)ccc(OC)c3F)[nH]c2cc1OC` [Ex. 4.45]: 5.24 and 6.91.
Taken in the same sequence, the figures for `COc1cc2nc([C@@H]3[C@@H](C)CCN3C(=O)c3ccc(C)cc3-n3nccn3)[nH]c2cc1OC` [Ex. 4.46] were 7.29 and 7.85.
The matching figures for `COc1cc2nc([C@@H]3[C@@H](C)CCN3C(=O)c3cc(C(F)(F)F)ccc3-n3nccn3)[nH]c2cc1OC` [Ex. 4.47]: 6.55 and 6.75.
`COc1cc2nc([C@@H]3[C@@H](C)CCN3C(=O)c3c(C)cccc3-n3nccn3)[nH]c2cc1OC` [Ex. 4.48]: the pIC50 is 5.88 at human orexin-2 receptor and 6.41 on human orexin-1 receptor.
In the case of `COc1cc2nc([C@@H]3[C@@H](C)CCN3C(=O)c3ccccc3-n3nccn3)[nH]c2cc1OC` [Ex. 4.49], the pIC50 on human orexin-2 receptor is 6.27; on human orexin-1 receptor it was 6.66.
As to `COc1cc2nc([C@@H]3[C@@H](C)CCN3C(=O)c3nc(C)sc3-c3ccc(C(F)(F)F)cc3)[nH]c2cc1OC` [Ex. 4.50], the pIC50 at human orexin-2 receptor was 5.37; on human orexin-1 receptor, 6.43.
The matching figures for `COc1cc2nc([C@@H]3[C@@H](C)CCN3C(=O)c3sc(C)nc3-c3ccc(C)cc3)[nH]c2cc1OC` [Ex. 4.51]: 6.17 and 7.00.
For the compound `COc1cc2nc([C@@H]3[C@@H](C)CCN3C(=O)c3nc(C)sc3-c3cc(F)cc(F)c3)[nH]c2cc1OC` [Ex. 4.52], the pIC50 is 5.97 at human orexin-2 receptor and 7.72 on human orexin-1 receptor.
The matching figures for `COc1ccc(-c2sc(C)nc2C(=O)N2CC[C@H](C)[C@H]2c2nc3cc(OC)c(OC)cc3[nH]2)cn1` [Ex. 4.53]: 5.35 and 6.95.
For the compound `COc1cc2nc([C@@H]3[C@@H](C)CCN3C(=O)c3nc(C)sc3-c3ccc(F)cc3)[nH]c2cc1OC` [Ex. 4.54], the pIC50 is 5.63 on human orexin-2 receptor and 7.68 at human orexin-1 receptor.
Consider `COc1cc2nc([C@@H]3[C@@H](C)CCN3C(=O)c3ncsc3-c3cccc(Cl)c3)[nH]c2cc1OC` [Ex. 4.55], for which the pIC50 was 5.10 at human orexin-2 receptor and 6.78 on human orexin-1 receptor.
The matching figures for `COc1cc2nc([C@@H]3[C@@H](C)CCN3C(=O)c3ccccc3-n3cccn3)[nH]c2cc1OC` [Ex. 4.56]: 5.58 and 6.55.
The matching figures for `COc1cc2nc([C@@H]3[C@@H](C)CCN3C(=O)c3cc(C)ccc3-n3cccn3)[nH]c2cc1OC` [Ex. 4.57]: 6.60 and 7.23.
The matching figures for `COc1cc2nc([C@@H]3[C@@H](C)CCN3C(=O)c3ccccc3-c3ccc(C)cc3)[nH]c2cc1OC` [Ex. 4.58]: 5.66 and 7.18.
On to `Cc1c(Cl)ccc2[nH]c([C@@H]3[C@@H](C)CCN3C(=O)c3ccccc3-n3nccn3)nc12` [Ex. 4.59], for which the pIC50 is 7.17 at human orexin-2 receptor and 8.22 at human orexin-1 receptor.
Turning to `Cc1c(Cl)ccc2[nH]c([C@@H]3[C@@H](C)CCN3C(=O)c3cc(Cl)ccc3-n3nccn3)nc12` [Ex. 4.60], the pIC50 is 7.19 at human orexin-2 receptor and 8.70 on human orexin-1 receptor.
The matching figures for `Cc1ccc(-c2ccccc2C(=O)N2CC[C@H](C)[C@H]2c2nc3c(C)c(Cl)ccc3[nH]2)cc1` [Ex. 4.61]: 7.14 and 9.05.
The matching figures for `Cc1ccc(C(=O)N2CC[C@H](C)[C@H]2c2nc3c(C)c(Cl)ccc3[nH]2)c(-n2nccn2)c1` [Ex. 4.62]: 7.72 and 8.52.
The matching figures for `Cc1nc(C(=O)N2CC[C@H](C)[C@H]2c2nc3c(C)c(Cl)ccc3[nH]2)c(-c2ccc(Cl)cc2)s1` [Ex. 4.63]: 6.91 and 9.10.
For `Cc1ccc(-n2cccn2)c(C(=O)N2CC[C@H](C)[C@H]2c2nc3c(C)c(Cl)ccc3[nH]2)c1` [Ex. 4.64], the figures for the pIC50 at human orexin-2 receptor and on human orexin-1 receptor were 6.10 and 8.30, respectively.
Take `Cc1ccc(-c2nc(C)sc2C(=O)N2CC[C@H](C)[C@H]2c2nc3c(C)c(Cl)ccc3[nH]2)cc1` [Ex. 4.65]: the negative-log IC50 (pIC50) at human orexin-2 receptor is 6.68; at human orexin-1 receptor it was 8.10.
